Data as given in US20210308211A1, “METHOD OF TREATING VIRAL INFECTIONS” (priority 2020, published 2021).
Where “and” joins values, the source holds several entries; their conditions need not be identical. Equal entries are not always repeated. Entries after “also recorded” stand apart in the source; their conditions may differ. Non-standard residues stand in square brackets, D forms with d. Residues, ends and D or L forms follow the SMILES beside them. pS = N[C@@H](COP(=O)(O)O)C(=O)O

Assays:
Balb/c mice = assay: 15-day ovalbumin-induced airway hypereosinophilia model, BAL cell counts; type: in vivo, mouse; conditions: for B cells / Eosinophils / Macrophages / Neutrophils / T cells / Total cells: per mouse
Procedure: The anti-inflammatory effect of the P140 phosphopeptide was evaluated when administered locally (intranasally) or systemically (intravenously) in a 15-day model of hypereosinophilic airway inflammation in mice.
The P140 phosphopeptide was solubilized in sterile water (Braun) and 10× concentrate sterile saline was added to adjust osmolarity to 300 mosm. Osmolarity was controlled with a micro osmometer (Löser, type 15) and validated (302 mosm).
The P140 phosphopeptide was used in vivo at the dose of 4 mg/kg by intranasal (i.n.) and intravenous (i.v.) routes. Control animals received equivalent volumes (1 ml/kg for i.n. and 2 ml/kg for i.v.) of saline (Table 6).
Nine-week-old male Balb/c mice were sensitized by intraperitoneal (i.p.) injections of a mixture containing 50 μg OVA (Sigma-Aldrich) and 2 mg alum (Sigma-Aldrich) in 0.1 ml saline. Mice were challenged by i.n. administration of 25 μl of OVA on day 5, then 25 μl of OVA and/or saline on day 12, 13 and 14. Mice were treated by i.v. injection (2 ml/kg) or i.n. administration (1 ml/kg) of P140 or solvent on day 9 (See FIG. 9).
BAL was performed twenty-four hours after […] challenge as described (Daubeuf, F. and Frossard, N. 2012. Performing Bronchoalveolar Lavage in the Mouse. Curr Protoc Mouse Biol 2:167-175). Mice were anaesthetized IP (Ketamine 150 mg/kg—Xylasine 10 mg/kg). Blood was collected from the heart, centrifuged at 10,000 g for 2 min and serum stored at −20° C. After semi-excision of the trachea, a plastic cannula was inserted, and airspace washed with 0.5 ml of 0.9% NaCl injected with a 1 ml syringe. This procedure was performed 10 times. The initial concentrated supernatant of the 2 first lavages (volume=2×0.5 ml administered, ˜0.5 ml recovered) was collected for cytokine measurements. The remaining BAL fluid was centrifuged (300 g for 5 min, 4° C.), and cell pellets pooled. The cell pellet was suspended in 500 μl of 0.9% NaCl and used for total cell counts evaluated on a Muse® Cell Analyser. Differential cell counts were assessed by flow cytometry (LSRII® cytometer, BD Bioscience). BAL cells were added with FCblock (0.5 μl, 553142, BD Bioscience) in a black microplate, incubated for 20 min at room temperature. Then, marker antibodies were added: CD11c-FITC (557400, BD bioscience), Gr-1-Pe-eFluor610 (61-5931-82, eBioscience), CD11b-APC-Cy7 (557657, BD bioscience), CD45-AlexaFluor700 (103128, BioLegend), CD3-BV605 (564009, BD bioscience), CD19-PE-Cy7 (552854, BD bioscience). Antibodies were incubated with BAL cells for 30 min at room temperature before DAPI (5 μl, BD bioscience) addition, and flow cytometry was performed immediately.
Data are presented as means±SEM. Differences between groups were tested for statistical significance using one-way ANOVA followed by Tukey's post-test. For statistical analysis, control groups 1, 2 and 3 were pooled.

HSC70 protein = biological target: T1, HSC70 protein (Bos taurus, UniProt P19120); assay: BIAcore binding of peptides to immobilized HSC70; parameters: species or system bovine
T1 construct: purchased Stressgen
Procedure: BIAcore 3000 system (Biacore AB) was used to evaluate the binding of P140 peptides to HSC70 protein (Page et al., 2009, and 2011). Sensor chip CM5, surfactant P20, amine coupling kit containing N-hydroxysuccinimide (NHS) and N-ethyl-N′-dimethylaminopropyl carbodiimide (EDC), 2-(2-pyridinyldithio)ethaneamine (PDEA) and ethanolamine were from Biacore AB. Biosensor assays were performed with HBS-EP buffer as running buffer (10 mM HEPES, 150 mM NaCl, 3 mM EDTA, 0.005% surfactant P20, pH 7.4). The compounds were diluted in the running buffer. The sensor chip surface was regenerated after each experiment by injecting 10 μL of 10 mM HCl. Recombinant bovine HSC70 (Stressgen) was immobilized on flow cells of a CM5 sensor chip through its thiol groups using 35 μL PDEA in 50 mM borate buffer, pH 8.3 on the NHS/EDC-activated matrix. Then, 35 μL of HSC70 (100 μg/mL in formate buffer, pH 4.3) were injected until a response of 13,000 response units (RU) corresponding to 13 ng/mm^2 of HSC70 was immobilized. Twenty μL of a 50 mM cysteine/1 M NaCl solution was used to saturate unoccupied sites on the chip. The direct binding measurement of P140 peptides to HSC70 was carried out at 25° C. with a constant flow rate of 20 μL/min. P140 peptide and analogues were injected in the flux at different concentrations for 3 min, followed by a dissociation phase of 3 min. The kinetic parameters were calculated using the BIAeval 3.1 software on a personal computer. Analysis was performed using the simple 1:1 Langmuir binding model. The specific binding profiles were obtained after subtracting the response signal from the control empty channel and from blank-buffer injection. The fitting to each model was judged by the χ^2 value and randomness of residue distribution compared to the theoretical model.

[1] = BAL, P140-IN (i.n. 4 mg/kg, day 9), OVA challenge
[2] = BAL, P140-IN (i.n. 4 mg/kg, day 9), saline challenge
[3] = BAL, P140-IV (i.v. 4 mg/kg, day 9), OVA challenge
[4] = BAL, P140-IV (i.v. 4 mg/kg, day 9), saline challenge

T1 sequence (P19120 whole entry): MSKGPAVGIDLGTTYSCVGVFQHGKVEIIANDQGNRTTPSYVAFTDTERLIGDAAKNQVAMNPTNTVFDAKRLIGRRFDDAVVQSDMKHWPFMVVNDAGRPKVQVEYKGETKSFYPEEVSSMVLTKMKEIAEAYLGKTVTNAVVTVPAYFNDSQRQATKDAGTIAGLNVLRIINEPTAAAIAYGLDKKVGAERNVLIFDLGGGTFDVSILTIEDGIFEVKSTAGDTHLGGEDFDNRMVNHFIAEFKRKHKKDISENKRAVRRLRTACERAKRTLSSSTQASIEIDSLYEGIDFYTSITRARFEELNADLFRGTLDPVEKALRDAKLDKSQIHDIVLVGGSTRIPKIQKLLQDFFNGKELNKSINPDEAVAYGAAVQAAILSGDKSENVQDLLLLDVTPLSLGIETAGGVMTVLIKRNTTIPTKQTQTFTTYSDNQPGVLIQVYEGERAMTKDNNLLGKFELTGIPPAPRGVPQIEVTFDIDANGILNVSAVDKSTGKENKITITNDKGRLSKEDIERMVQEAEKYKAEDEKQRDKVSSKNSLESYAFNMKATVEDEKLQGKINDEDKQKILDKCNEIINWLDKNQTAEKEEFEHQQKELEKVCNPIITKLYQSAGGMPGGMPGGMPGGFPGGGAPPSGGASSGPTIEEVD

CC[C@H](C)[C@H](NC(=O)[C@H](Cc1ccccc1)NC(=O)[C@H](C)NC(=O)[C@H](Cc1ccc(O)cc1)NC(=O)CNC(=O)[C@H](CCCNC(=N)N)NC(=O)[C@@H]1CCCN1C(=O)[C@H](CCCCN)NC(=O)CNC(=O)[C@H](COP(=O)(O)O)NC(=O)[C@H](CCCNC(=N)N)NC(=O)[C@H](CCCCN)NC(=O)[C@H](CO)NC(=O)[C@H](Cc1ccc(O)cc1)NC(=O)[C@@H](NC(=O)[C@H](CCSC)NC(=O)[C@H](Cc1c[nH]cn1)NC(=O)[C@@H](NC(=O)[C@@H](N)CCCNC(=N)N)[C@@H](C)CC)C(C)C)C(=O)N[C@@H](CCC(=O)O)C(=O)N[C@@H](Cc1ccc(O)cc1)C(=O)O [Compound P140] (H-RIHMVYSKR[pS]GKPRGYAFIEY-OH; N-terminus and C-terminus assumed)
B cells (Balb/c mice; [1]): 25606 and 32251 and 26562 and 23383 and 33156 and 13236 | Eosinophils (Balb/c mice; [1]): 490306 and 497948 and 737671 and 839841 and 792249 and 615171 | Macrophages (Balb/c mice; [1]): 271110 and 322340 and 247391 and 538954 and 436210 and 286509 | Neutrophils (Balb/c mice; [1]): 57542 and 60787 and 62354 and 95173 and 47346 and 65366 | T cells (Balb/c mice; [1]): 44036 and 61800 and 73159 and 118360 and 101951 and 61293 | Total cells (Balb/c mice; [1]): 862995 and 942875 and 1120576 and 1592328 and 1377755 and 1028339 | B cells (Balb/c mice; [2]): 112 and 242 | Eosinophils (Balb/c mice; [2]): 168 and 103 | Macrophages (Balb/c mice; [2]): 388102 and 434029 | Neutrophils (Balb/c mice; [2]): 56 and 61 | T cells (Balb/c mice; [2]): 4135 and 4180 | Total cells (Balb/c mice; [2]): 392461 and 438573 | B cells (Balb/c mice; [3]): 10219 and 15209 and 14027 and 17417 and 11003 and 10922 | Eosinophils (Balb/c mice; [3]): 425928 and 272763 and 473105 and 470027 and 327186 and 429469 | Macrophages (Balb/c mice; [3]): 439265 and 442055 and 244523 and 293070 and 342134 and 379565 | Neutrophils (Balb/c mice; [3]): 42783 and 21442 and 59616 and 76867 and 40275 and 31756 | T cells (Balb/c mice; [3]): 41744 and 43881 and 32677 and 55502 and 28857 and 45030 | Total cells (Balb/c mice; [3]): 949720 and 780142 and 809921 and 895467 and 738452 and 885821 | B cells (Balb/c mice; [4]): 70 and 266 | Eosinophils (Balb/c mice; [4]): 110 and 166 | Macrophages (Balb/c mice; [4]): 335658 and 335200 | Neutrophils (Balb/c mice; [4]): 259 and 133 | T cells (Balb/c mice; [4]): 5311 and 4790 | Total cells (Balb/c mice; [4]): 341738 and 340389 | Number of cells recovered in BAL fluid as compared to vehicle (Balb/c mice; control mice challenged with saline, i.n. or i.v.): little effect | Inflammatory cell recruitment in BAL (in words) (Balb/c mice; i.n. route, 4 mg/kg, OVA challenge): little effect; also recorded: without substantial effect | Neutrophils recruitment, change vs OVA group (Balb/c mice; i.v. 4 mg/kg, OVA challenge, BAL, not significant): −38% | Eosinophil recruitment, change vs OVA group (Balb/c mice; i.v. 4 mg/kg, OVA challenge, BAL, p<0.001): −50% | T cells recruitment, change vs OVA group (Balb/c mice; i.v. 4 mg/kg, OVA challenge, BAL, p<0.01): −66% | B cells recruitment, change vs OVA group (Balb/c mice; i.v. 4 mg/kg, OVA challenge, BAL, p<0.05): −42% | Anti-inflammatory effect (in words) (Balb/c mice; i.v. administration 4 mg/kg, OVA challenge): shows anti-inflammatory effect | Rmax (RU) (HSC70 protein; 25° C., 1:1 Langmuir model): 83.3 RU | kon (HSC70 protein; 25° C., 1:1 Langmuir model, analyte 1.56-25 μM, read-out: ka): 450 M⁻¹ s⁻¹ | Affinity for HSC70, oxidized vs non-oxidized peptide (in words) (HSC70 protein; P140 compared with P140 M(O)): not statistically different | Req (RU) (HSC70 protein; peptide 1.56 μM): 15.3 RU | Req (RU) (HSC70 protein; peptide 3.12 μM): 25.8 RU | Req (RU) (HSC70 protein; peptide 6.25 μM): 39.5 RU | Req (RU) (HSC70 protein; peptide 12.5 μM): 53.6 RU | Req (RU) (HSC70 protein; peptide 25 μM): 65.2 RU | kobs (HSC70 protein; peptide 25 μM): 0.0144 s⁻¹
